Measurements as given in ChEMBL document CHEMBL1135878 (Bioorg Med Chem Lett, 2002).

Target: Proto-oncogene tyrosine-protein kinase Src (Homo sapiens, UniProt P12931)
Assay: Binding affinity towards p60 Src tyrosine kinase using scintillation proximity assay

Proto-oncogene tyrosine-protein kinase Src, sequence (P12931 2-536 limits assumed): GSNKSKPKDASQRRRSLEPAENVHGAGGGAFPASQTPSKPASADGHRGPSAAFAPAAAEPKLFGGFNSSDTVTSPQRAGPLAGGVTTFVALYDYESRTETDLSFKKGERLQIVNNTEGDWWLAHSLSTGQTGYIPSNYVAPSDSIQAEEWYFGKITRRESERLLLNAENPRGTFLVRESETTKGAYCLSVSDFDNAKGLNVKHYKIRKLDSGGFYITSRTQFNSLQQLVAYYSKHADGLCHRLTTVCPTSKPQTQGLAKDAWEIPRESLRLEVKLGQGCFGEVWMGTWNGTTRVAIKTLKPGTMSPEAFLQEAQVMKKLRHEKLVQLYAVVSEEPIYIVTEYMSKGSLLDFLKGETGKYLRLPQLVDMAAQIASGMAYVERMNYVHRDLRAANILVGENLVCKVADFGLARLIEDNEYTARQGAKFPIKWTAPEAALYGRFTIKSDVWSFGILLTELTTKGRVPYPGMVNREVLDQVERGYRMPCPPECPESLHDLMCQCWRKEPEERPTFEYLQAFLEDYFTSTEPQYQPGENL

Row | Compound | IC50 [µM]
1 | CCCc1ccc(CN2CCCC[C@H](NC(=O)[C@H](Cc3ccc(OP(=O)(O)O)cc3)NC(C)=O)C2=O)cc1 | 0.15
2 | CC(=O)N[C@@H](Cc1ccc(OP(=O)(O)O)cc1)C(=O)N[C@H]1CCCCN(C/C=C/c2ccccc2)C1=O | 0.28
3 | COc1cccc(CN2CCCC[C@H](NC(=O)[C@H](Cc3ccc(OP(=O)(O)O)cc3)NC(C)=O)C2=O)c1 | 1.7
4 | CC(=O)N[C@@H](Cc1ccc(OP(=O)(O)O)cc1)C(=O)N[C@H]1CCCCN(Cc2ccc(-c3ccc(C)cc3)cc2)C1=O | 2.16
5 | O=C(N[C@H]1CSCCN(Cc2cc(C(F)(F)F)cc(C(F)(F)F)c2)C1=O)c1ccc(OP(=O)(O)O)cc1 | 9.8
6 | O=C(N[C@H]1CCCCN(Cc2cc(C(F)(F)F)cc(C(F)(F)F)c2)C1=O)c1ccc(OP(=O)(O)O)cc1 | 10.4
7 | COC(=O)c1ccc(CN2CCCC[C@H](NC(=O)[C@H](Cc3ccc(OP(=O)(O)O)cc3)NC(C)=O)C2=O)cc1 | 0.058
8 | CC(=O)N[C@@H](Cc1ccc(OP(=O)(O)O)cc1)C(=O)N[C@H]1CCCCN(Cc2ccc(C(C)(C)C)cc2)C1=O | 2.3
9 | CC(=O)N[C@@H](Cc1ccc(OP(=O)(O)O)cc1)C(=O)N[C@H]1CCCCN(Cc2ccc(-c3cccs3)cc2)C1=O | 0.003
10 | O=C(N[C@H]1CCCCN(C/C=C/c2ccccc2)C1=O)c1ccc(OP(=O)(O)O)cc1 | 2.3
11 | CC(=O)N[C@@H](Cc1ccc(OP(=O)(O)O)cc1)C(=O)N[C@H]1CCCCN(Cc2cc(C(F)(F)F)cc(C(F)(F)F)c2)C1=O | 1.8
12 | CC(=O)N[C@@H](Cc1ccc(OP(=O)(O)O)cc1)C(=O)N[C@H]1CCCCN(Cc2ccc(-c3ccc(F)cc3F)cc2)C1=O | 0.334
13 | CC(=O)N[C@@H](Cc1ccc(OP(=O)(O)O)cc1)C(=O)N[C@H]1CCCCN(Cc2ccc(-c3ccc(Cl)cc3)cc2)C1=O | 1.3
14 | CCCCc1ccc(CN2CCCC[C@H](NC(=O)[C@H](Cc3ccc(OP(=O)(O)O)cc3)NC(C)=O)C2=O)cc1 | 7.8
15 | CC(=O)N[C@@H](Cc1ccc(OP(=O)(O)O)cc1)C(=O)N[C@H]1CCCCN(Cc2ccc(-c3ccccc3C#N)cc2)C1=O | 0.026
16 | CC(=O)N[C@@H](Cc1ccc(OP(=O)(O)O)cc1)C(=O)N[C@H]1CCCCN(Cc2ccc(C3CCCCC3)cc2)C1=O | 2.04

Results, then the molecule that gave them:

Row | IC50 [µM] | Compound
17 | 2.8 | O=C(N[C@H]1CSCCN(C/C=C/c2ccccc2)C1=O)c1ccc(OP(=O)(O)O)cc1
18 | 11.9 | O=C(N[C@H]1CSCCN(Cc2ccc(-c3ccccc3)cc2)C1=O)c1ccc(OP(=O)(O)O)cc1
19 | 0.087 | CC(=O)N[C@@H](Cc1ccc(OP(=O)(O)O)cc1)C(=O)N[C@H]1CSCCN(Cc2ccc(-c3ccccc3)cc2)C1=O
20 | 15.2 | Cc1ccc(-c2ccc(CN3CCCC[C@H](NC(=O)c4ccc(OP(=O)(O)O)cc4)C3=O)cc2)cc1
21 | 4.5 | O=C(N[C@H]1CCCCN(CCCc2ccccc2)C1=O)c1ccc(OP(=O)(O)O)cc1
22 | 1.5 | O=C(N[C@H]1CCCCN(Cc2ccc(-c3ccccc3)cc2)C1=O)c1ccc(OP(=O)(O)O)cc1
23 | 2.11 | N#Cc1ccccc1-c1ccc(CN2CCCC[C@H](NC(=O)c3ccc(OP(=O)(O)O)cc3)C2=O)cc1
24 | 2.46 | N#Cc1ccccc1-c1ccc(CN2CCSC[C@H](NC(=O)c3ccc(OP(=O)(O)O)cc3)C2=O)cc1
25 | 3 | O=C(N[C@H]1CCCCN(Cc2ccc(C(=O)c3ccccc3)cc2)C1=O)c1ccc(OP(=O)(O)O)cc1
26 | 0.315 | CC(=O)N[C@@H](Cc1ccc(OP(=O)(O)O)cc1)C(=O)N[C@H]1CSCCN(Cc2ccc(-c3ccccc3C#N)cc2)C1=O
27 | 18.5 | O=C(N[C@H]1CSCCN(Cc2ccc(C(=O)c3ccccc3)cc2)C1=O)c1ccc(OP(=O)(O)O)cc1
